Measurements from paper PMC11259132, “Tyrosine phenol-lyase inhibitor quercetin reduces fecal phenol levels in mice” (PNAS Nexus, 2024).
Like-named read-outs stand apart in the source and are kept apart here.

Experiments:
Format in all cases: biochemical
[1] = target: T1, Tyrosine phenol-lyase (TPL) (Morganella morganii, UniProt J7TAF3); experiment: recombinant TPL assay, phenol by LC-MS; Lineweaver-Burk kinetics
T1 construct: recombinant TPL from M. morganii ssp. morganii (JCM1672), pET-15b

[2] = target: T1, Tyrosine phenol-lyase (TPL)
[3] = target: T2, Tyrosine phenol-lyase (TPL) (Citrobacter koseri, UniProt A8AM34); experiment: recombinant TPL assay at […] inhibitor, phenol by LC-MS
T2 construct: recombinant TPL from C. koseri (JCM1658), pET-15b
T2 sequence (A8AM34 1-465): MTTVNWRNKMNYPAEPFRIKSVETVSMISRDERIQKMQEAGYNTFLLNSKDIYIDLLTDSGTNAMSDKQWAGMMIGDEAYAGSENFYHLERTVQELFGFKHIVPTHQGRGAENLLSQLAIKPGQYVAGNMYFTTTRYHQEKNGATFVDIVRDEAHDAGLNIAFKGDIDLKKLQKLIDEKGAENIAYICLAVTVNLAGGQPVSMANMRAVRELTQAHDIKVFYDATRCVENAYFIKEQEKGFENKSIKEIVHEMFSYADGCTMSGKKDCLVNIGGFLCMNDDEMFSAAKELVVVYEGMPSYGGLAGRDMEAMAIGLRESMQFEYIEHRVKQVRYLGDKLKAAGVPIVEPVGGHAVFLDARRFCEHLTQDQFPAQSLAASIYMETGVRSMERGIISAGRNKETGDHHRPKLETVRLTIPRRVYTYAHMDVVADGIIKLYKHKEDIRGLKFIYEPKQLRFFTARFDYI

T1 sequence (J7TAF3 1-456): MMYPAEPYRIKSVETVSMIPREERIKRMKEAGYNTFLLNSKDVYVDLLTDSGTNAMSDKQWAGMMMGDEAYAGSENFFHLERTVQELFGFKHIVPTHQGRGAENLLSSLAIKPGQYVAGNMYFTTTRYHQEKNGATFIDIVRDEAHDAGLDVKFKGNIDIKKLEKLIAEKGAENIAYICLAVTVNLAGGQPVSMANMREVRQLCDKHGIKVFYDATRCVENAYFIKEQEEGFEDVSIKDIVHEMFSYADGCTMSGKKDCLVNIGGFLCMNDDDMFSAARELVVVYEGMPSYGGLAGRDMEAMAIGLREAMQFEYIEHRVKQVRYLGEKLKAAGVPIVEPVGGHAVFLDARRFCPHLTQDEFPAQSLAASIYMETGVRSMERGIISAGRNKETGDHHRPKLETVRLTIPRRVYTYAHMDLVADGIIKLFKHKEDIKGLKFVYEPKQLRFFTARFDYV

Row | SMILES | recombinant TPL assay at 500 μM inhibitor, phenol by LC-MS [2] | other results
1 | N[C@@H](Cc1ccc(O)cn1)C(=O)O [2-aza-Tyr] | – | Ki ([1]; read-out: Ki): 42 µM
2 | O=c1c(O)c(-c2ccc(O)cc2)oc2cc(O)cc(O)c12 [kaempferol] | structural analogs of quercetin, including taxifolin, kaempferol, luteolin, and myricetin, significantly inhibited TPL-catalyzed phenol production | –
3 | O=c1cc(-c2ccc(O)c(O)c2)oc2cc(O)cc(O)c12 [luteolin] | structural analogs of quercetin, including taxifolin, kaempferol, luteolin, and myricetin, significantly inhibited TPL-catalyzed phenol production | –
4 | O=c1c(O)c(-c2ccc(O)c(O)c2)oc2cc(O)cc(O)c12 [quercetin] | – | recombinant TPL assay at 500 μM inhibitor, phenol by LC-MS [3]: The strongest inhibitory activity of quercetin was confirmed using another recombinant TPL isolated from Citrobacter koseri (JCM1658; Fig. 1B); Ki [1]: 19.9 µM
5 | O=C1c2c(O)cc(O)cc2O[C@H](c2ccc(O)c(O)c2)[C@H]1O [taxifolin] | structural analogs of quercetin, including taxifolin, kaempferol, luteolin, and myricetin, significantly inhibited TPL-catalyzed phenol production | –
